Experimental data reported in US11976280B2, “SMAC/Diablo inhibitors useful for treating cancer” (THE NATIONAL INSTITUTE FOR BIOTECHNOLOGY IN THE NEGEV LTD., priority 2017, dated 2024).
d = 2'-deoxy (DNA); r = 2'-OH (RNA)

Test system: A549 cells-derived tumors
Experiment: Next-generation sequencing (NGS) of si-NT- and si-hSMAC-A-treated tumors
Format: in vivo, human
Method: Libraries were prepared by the INCPM-RNA-seq unit (Weizmann Institute, Israel). Briefly, polyA fraction (mRNA) was purified from 500 ng of total RNA, isolated as above, followed by fragmentation and generation of double stranded cDNA. End repair, a base addition, adapter ligation and PCR amplification steps were performed according to established methods. Libraries were evaluated by Qubit and TapeStation. Sequencing libraries were constructed with barcodes to allow multiplexing of 20 samples in one lane. Between 22 and 26 million reads single-end 60-bp reads were sequenced per sample on Illumina HiSeq 2500 V4 instrument.
Bioinformatics analyses were carried out at the Bioinformatics Core Facility at the National Institute for Biotechnology in the Negev, Ben-Gurion University. Raw sequence reads were assessed for quality using FASTQC and further trimmed for removal of remaining adaptors and low quality bases using Trimmomatic. The trimmed reads from each sample were separately aligned to the human and mouse genomes (GRCh38 and GRCm38.75, respectively) using STAR v2.3.0 with default settings. An average of 23.7±0.8 million reads per sample was obtained. Of these, an average of 13, 2.6, 7.8 and 0.3 million reads were mapped to human only, mouse only, both human and mouse, and none of them, respectively. After rejection of multi-mapped reads, a total of 11.5±2.5 human-specific, uniquely mapped reads, and 2.3±1.7 mouse-specific, uniquely mapped reads were subjected for further analysis. The number of aligned reads per gene per sample were counted using HTSeq count with “intersection-nonempty” (to handle reads that overlap with more than one gene) and “no stranded” as parameters. The other parameters were set to their default. Normalization and statistical analysis for differential expression were carried out using DESeq2 v1.6.3. Fold change values were converted to linear scale, with a minus sign indicating down-regulation.
Differentially expressed genes were defined as those having a p-value<0.05, and linear fold change>1.5 and <−1.5. Functional analysis was performed using the Gene Ontology system, DAVID and Expander software tools.
NGS was used to investigate changes in patterns of gene expression in si-NT-TTs and si-hSMAC-A-TTs (FIG. 10, and Tables 3-5). […] As si-hSMAC is human-specific, any effect on mouse gene expression must be mediated by the human tumor cells.
The major functional groups were changes were seen are presented below.

[1] = vs si-NT-TTs, ENDOPLASMIC AND GOLGI LUMENS
[2] = vs si-NT-TTs, ENDOPLASMIC AND GOLGI LUMENS / METABOLISM RELATED ENZYMES
[3] = vs si-NT-TTs, ER AND MITOCHONDRIA
[4] = vs si-NT-TTs, EXTRACELLULAR MATRIX

For “si-hSMAC-A: siRNA to human SMAC/Diablo; sense 5′AAGCGGUGUUUCUCAGAAUUGtt3′ (SEQ ID NO:20), antisense 5′AACAAUUCUGAGAAACCCGCtt3′ (SEQ ID NO:21) (sense AAGCGGUGUUUCUCAGAAUUGTT; antisense AACAAUUCUGAGAAACCCGCTT; sense: sugars from the 5' end r21 d2, backbone not given here; antisense: sugars from the 5' end r20 d2, backbone not given here)”, the “Fold change, ACKR3-atypical chemokine receptor 3 gene expression” value (NGS, si-hSMAC-A- vs si-NT-treated A549 cells-derived tumors, gene ACKR3) was −2.2, the “Fold change, C5-complement component 5 gene expression” value (NGS, si-hSMAC-A- vs si-NT-treated A549 cells-derived tumors, gene C5) was −1.7 and the “Fold change, C5AR1 (CD88)-complement component 5a receptor 1 gene expression” value (NGS, si-hSMAC-A- vs si-NT-treated A549 cells-derived tumors, gene C5AR1) was −1.7. For the same substance, the “Fold change, CCL24-chemokine (C-C motif) ligand 24 gene expression” value (NGS, si-hSMAC-A- vs si-NT-treated A549 cells-derived tumors, gene CCL24) was 1.9, the “Fold change, CCL28-chemokine (C-C motif) ligand 28 gene expression” value (NGS, si-hSMAC-A- vs si-NT-treated A549 cells-derived tumors, gene CCL28) was 1.9 and the “Fold change, CD274-(PD-L1) molecule gene expression” value (NGS, si-hSMAC-A- vs si-NT-treated A549 cells-derived tumors, gene CD274) was −1.9. The “Fold change, CREB3L3-CAMP responsive element binding protein 3-like 3 gene expression” value (NGS, si-hSMAC-A- vs si-NT-treated A549 cells-derived tumors, gene CREB3L3) was 2.0, the “Fold change, CX3CL1-chemokine (C-X3-C motif) ligand 1 gene expression” value (NGS, si-hSMAC-A- vs si-NT-treated A549 cells-derived tumors, gene CX3CL1) was 1.6 and the “Fold change, GAS6-growth arrest-specific 6 gene expression” value (NGS, si-hSMAC-A- vs si-NT-treated A549 cells-derived tumors, gene GAS6) was −1.7. For the same substance, the “Fold change, IL1R1-interleukin 1 receptor, type I gene expression” value (NGS, si-hSMAC-A- vs si-NT-treated A549 cells-derived tumors, gene IL1R1) was −1.6, the “Fold change, IL6-interleukin 6 gene expression” value (NGS, si-hSMAC-A- vs si-NT-treated A549 cells-derived tumors, gene IL6) was −2.5 and the “Fold change, IL18BP-interleukin 18 binding protein gene expression” value (NGS, si-hSMAC-A- vs si-NT-treated A549 cells-derived tumors, gene IL18BP) was −1.6. For the same substance, the “Fold change, IL27RA-interleukin 27 receptor, alpha gene expression” value (NGS, si-hSMAC-A- vs si-NT-treated A549 cells-derived tumors, gene IL27RA) was −1.6, the “Fold change, IRF6-interferon regulatory factor 6 gene expression” value (NGS, si-hSMAC-A- vs si-NT-treated A549 cells-derived tumors, gene IRF6) was 1.6 and the “Fold change, LBP-lipopolysaccharide binding protein gene expression” value (NGS, si-hSMAC-A- vs si-NT-treated A549 cells-derived tumors, gene LBP) was −2.1. The “Fold change, MRC2 (ENDO180)-mannose receptor, C type 2 gene expression” value (NGS, si-hSMAC-A- vs si-NT-treated A549 cells-derived tumors, gene MRC2) was −1.7, the “Fold change, OSMR-oncostatin M receptor gene expression” value (NGS, si-hSMAC-A- vs si-NT-treated A549 cells-derived tumors, gene OSMR) was −1.7 and the “Fold change, PROC-protein C gene expression” value (NGS, si-hSMAC-A- vs si-NT-treated A549 cells-derived tumors, gene PROC) was 1.8. The “Fold change, PTGS2 (Cox-2)-prostaglandin-endoperoxide synthase 2 gene expression” value (NGS, si-hSMAC-A- vs si-NT-treated A549 cells-derived tumors, gene PTGS2) was −1.8, the “Fold change, TLR3-toll-like receptor 3 gene expression” value (NGS, si-hSMAC-A- vs si-NT-treated A549 cells-derived tumors, gene TLR3) was −1.7 and the “Fold change, TNFAIP6 (TSG6) gene expression” value (NGS, si-hSMAC-A- vs si-NT-treated A549 cells-derived tumors, gene TNFAIP6) was −1.6. For the same substance, the “Fold change, TNFSF14 (LIGHT) gene expression” value (NGS, si-hSMAC-A- vs si-NT-treated A549 cells-derived tumors, gene TNFSF14) was −1.8, the “expression of genes associated with inflammation and the tumor microenvironment” value (in vivo) was “reduction” and the “number of human genes down-regulated” value (in vivo) was ~242. The “number of human genes up-regulated” value (in vivo) was “about 186”, the “Fold change ACKR3” value (vs si-NT-TTs, CELL MEMBRANE) was −2.2 fold and the “Fold change BAMBI” value (vs si-NT-TTs, CELL MEMBRANE) was 1.7 fold. For the same substance, the “Fold change C5AR1 (CD88)” value (vs si-NT-TTs, CELL MEMBRANE) was −1.7 fold, the “Fold change CDH3” value (vs si-NT-TTs, CELL MEMBRANE) was 1.7 fold and the “Fold change CLDN4” value (vs si-NT-TTs, CELL MEMBRANE) was 2.4 fold. The “Fold change CLMP” value (vs si-NT-TTs, CELL MEMBRANE) was −1.7 fold, the “Fold change CNTNAP2” value (vs si-NT-TTs, CELL MEMBRANE) was −1.8 fold and the “Fold change DSC2” value (vs si-NT-TTs, CELL MEMBRANE) was 1.6 fold. For the same substance, the “Fold change EMP1” value (vs si-NT-TTs, CELL MEMBRANE) was 1.8 fold, the “Fold change ITGA1 (CD49a)” value (vs si-NT-TTs, CELL MEMBRANE) was −1.9 fold and the “Fold change TNS1” value (vs si-NT-TTs, CELL MEMBRANE) was −1.6 fold. For the same substance, the “Fold change ABCC6” value [1] was −2.3 fold, the “Fold change AGR3” value [1] was 4.1 fold and the “Fold change AHCYL2” value [1] was −1.7 fold. For the same substance, the “Fold change BACE1” value [1] was −1.5 fold, the “Fold change CEMIP” value [1] was −3.6 fold and the “Fold change CHERP” value [1] was −1.7 fold. For the same substance, the “Fold change CLGN” value [1] was −1.9 fold, the “Fold change COX10-AS1” value [1] was −2.1 fold and the “Fold change CYP26B1” value [1] was −1.8 fold. For the same substance, the “Fold change FAM20A” value [1] was −4.4 fold, the “Fold change FOXRED2” value [1] was −1.5 fold and the “Fold change ITPR1” value [1] was −1.7 fold. The “Fold change NCK2” value [1] was 2.0 fold, the “Fold change P4HA3” value [1] was −1.9 fold and the “Fold change PCSK5” value [1] was −2.3 fold. The “Fold change PPAP2B” value [1] was −1.8 fold, the “Fold change PTGS2 (COX-2)” value [1] was −1.8 fold and the “Fold change RIC3” value [1] was −2.7 fold. For the same substance, the “Fold change RYR1” value [1] was 2.5 fold, the “Fold change SEC61G” value [1] was 1.8 fold and the “Fold change TM4SF20” value [1] was −1.7 fold. The “Fold change TMEM147-AS” value [1] was −1.7 fold, the “Fold change UGT1A7” value [1] was −3.5 fold and the “Fold change UGT1A9” value [1] was −17.2 fold. For the same substance, the “Fold change ACAD10” value [2] was −1.7 fold, the “Fold change H6PD (GDH)” value [2] was −1.6 fold and the “Fold change KLK6” value [3] was 25.83 fold. For the same substance, the “Fold change SGK1” value [3] was −1.7 fold, the “Fold change CD9 (TSPAN29)” value (vs si-NT-TTs, EXOSOMES) was 1.5 fold and the “Fold change CD63 (TSPAN30)” value (vs si-NT-TTs, EXOSOMES) was 3.5 fold. The “Fold change CD274 (PD-L1)” value (vs si-NT-TTs, EXOSOMES) was −1.9 fold, the “Fold change CEACAM5 (CD66e)” value (vs si-NT-TTs, EXOSOMES) was 2.2 fold and the “Fold change EPCAM” value (vs si-NT-TTs, EXOSOMES) was 2.7 fold. The “Fold change FSTL1” value (vs si-NT-TTs, EXOSOMES) was −1.8 fold, the “Fold change GAS6” value (vs si-NT-TTs, EXOSOMES) was −1.7 fold and the “Fold change GP1BA” value (vs si-NT-TTs, EXOSOMES) was −1.7 fold. The “Fold change HSPG2 (Perlecan)” value (vs si-NT-TTs, EXOSOMES) was −1.7 fold, the “Fold change IGFBP7” value (vs si-NT-TTs, EXOSOMES) was −1.8 fold and the “Fold change NID2” value (vs si-NT-TTs, EXOSOMES) was −2.1 fold. For the same substance, the “Fold change RAB17” value (vs si-NT-TTs, EXOSOMES) was 1.9 fold, the “Fold change TSPAN8” value (vs si-NT-TTs, EXOSOMES) was 1.6 fold and the “Fold change TSPAN13” value (vs si-NT-TTs, EXOSOMES) was 1.8 fold. For the same substance, the “Fold change VAMP8” value (vs si-NT-TTs, EXOSOMES) was 1.9 fold, the “Fold change CANT1” value (vs si-NT-TTs, EXOSOMES / METABOLISM RELATED ENZYMES) was 1.5 fold and the “Fold change ABI3BP (TARSH)” value [4] was −2.4 fold. The “Fold change ADAMTS9” value [4] was −2.2 fold, the “Fold change BMP2” value [4] was −1.8 fold and the “Fold change BMPER” value [4] was −1.7 fold. The “Fold change CCBE1” value [4] was −2.7 fold, the “Fold change COL4A1” value [4] was −2.2 fold and the “Fold change COL4A2” value [4] was −1.8 fold. For the same substance, the “Fold change COL5A1” value [4] was −1.5 fold, the “Fold change COL12A1” value [4] was −1.5 fold and the “Fold change COL17A1 (BP180)” value [4] was 2.1 fold. For the same substance, the “Fold change EDIL3 (Del1)” value [4] was −2.5 fold.
